Test results taken from paper PMC11161644, “An effective and rapidly degradable disinfectant from disinfection byproducts” (Nature Communications, 2024).

Experiment: UPLC/ESI-tqMS time profile of 2,6-DCQ and its degradation products in simulated seawater (pH 8.2, darkness); OH-DCQ formation
Settings: 2,6-DCQ degradation, pH 8.2, darkness
Description: A Waters UPLC system coupled with ESI-tqMS was used to characterize the degradation products of 2,6-DCQ. The UPLC separation was performed using an HSS T3 column (100 × 2.1 mm, 1.8 μm particle size, Waters) with a column temperature of 35 °C. A gradient eluent of methanol–water was applied at a flow rate of 0.4 mL min^−1. The gradient program was set as follows: methanol/water (v/v) ratio changed linearly from 5/95 to 90/10 in the first 8 min and then returned to 5/95 during 8.0‒8.1 min, which was held for 2.9 min for re-equilibration. The ESI-tqMS was set as follows: ESI negative mode, capillary voltage 2.8 kV, cone voltage 10–50 V (depending on analytes), cone gas flow 50 L h^−1, source temperature 120 °C, desolvation temperature 400 °C, desolvation gas flow 800 L h^−1, collision energy 15–50 eV (depending on analytes), collision gas (argon) flow 0.25 mL min^−1, and mass resolution 15 (1-unit resolution).
The degradation of 2,6-DCQ in seawater was simulated by adding 10 mg L^−1 2,6-DCQ to 50 mL ultrapure water, which was adjusted to pH 8.2 with 5 mM sodium carbonate (to simulate the alkalinity in seawater and also to be compatible with the subsequent UPLC/ESI-tqMS analysis). The sample was kept in darkness for 0–24 h, during which the pH of the sample was maintained at 8.1 ± 0.1. At a designated reaction time, 7.5 μL of the sample was injected into the UPLC system. For a nonhalogenated degradation product, the selected ion recording (SIR) mode with a dwell time of 0.05 s was adopted to obtain the retention time. For halogenated degradation products, the multiple reaction monitoring mode with a dwell time of 0.05 s was used to obtain the retention time and the isotopic abundance ratio. To investigate the time-dependent profile of 2,6-DCQ and its degradation products, the peak area of each compound was determined using the SIR mode in the UPLC/ESI-tqMS analysis.
The second aliquot was subjected to analysis of total organic halogen to quantify the collected OH-DCQ. The determination of total organic halogen was based on Standard Method 5320B[52], with modifications of using off-line ion chromatography for halide detection. Briefly, the aliquot was dissolved in 100 mL ultrapure water and acidified to pH 2 with concentrated nitric acid[52] prior to adsorption onto pre-packed activated carbon columns (Mitsubishi). A three-channel adsorption module (TXA03C, Mitsubishi Chemical Analytech) was used for adsorption. An AQF-100 automatic quick furnace (Mitsubishi Chemical Analytech) was used for pyrolysis. During the pyrolysis process, the chlorine atoms in OH-DCQ were converted to chloride. The chloride ion concentration was determined using an ICS-3000 ion chromatography system (Dionex). 2,6-DCQ was used as a standard compound for measuring total organic halogen to determine the recovery of the analysis. The total organic halogen analysis was conducted in duplicate.

O=C1C=C(Cl)C(=O)C(OC2=C(Cl)C(=O)C(Cl)=CC2=O)=C1 [SIR 333]
Peak area (0 h): 25 | Peak area (0.25 h): 566 | Peak area (0.5 h): 1172 | Peak area (0.75 h): 1708 | Peak area (1 h): 2037 | Peak area (1.25 h): 2462 | Peak area (1.5 h): 2725 | Peak area (1.75 h): 2905 | Peak area (2 h): 3055 | Peak area (2.25 h): 3331 | Peak area (2.5 h): 3689 | Peak area (2.75 h): 3558 | Peak area (3 h): 3681 | Peak area (3.25 h): 3675 | Peak area (3.5 h): 3524 | Peak area (3.75 h): 3765 | Peak area (4 h): 3768 | Peak area (4.5 h): 3886 | Peak area (5 h): 4092 | Peak area (5.5 h): 3835 | Peak area (6 h): 3706 | Peak area (8 h): 3365 | Peak area (10 h): 2830 | Peak area (12 h): 2308 | Peak area (14 h): 1768 | Peak area (16 h): 1379 | Peak area (18 h): 1089 | Peak area (20 h): 896 | Peak area (24 h): 463

O=C1C=C(Cl)C(=O)C=C1O [SIR 157, 3-hydroxyl-6-monochloro-1,4-benzoquinone]
Peak area (0 h): 131 | Peak area (0.25 h): 1090 | Peak area (0.5 h): 1291 | Peak area (0.75 h): 1521 | Peak area (1 h): 1656 | Peak area (1.25 h): 1663 | Peak area (1.5 h): 1773 | Peak area (1.75 h): 1891 | Peak area (2 h): 1830 | Peak area (2.25 h): 2020 | Peak area (2.5 h): 2128 | Peak area (2.75 h): 2115 | Peak area (3 h): 2124 | Peak area (3.25 h): 2427 | Peak area (3.5 h): 2418 | Peak area (3.75 h): 2409 | Peak area (4 h): 2447 | Peak area (4.5 h): 2594 | Peak area (5 h): 2821 | Peak area (5.5 h): 2983 | Peak area (6 h): 3514 | Peak area (8 h): 4489 | Peak area (10 h): 4560 | Peak area (12 h): 4418 | Peak area (14 h): 4868 | Peak area (16 h): 4755 | Peak area (18 h): 4648 | Peak area (20 h): 5024 | Peak area (24 h): 4289
